Measurements as given in US10058534B2, “Benzothiophene derivatives and compositions thereof as selective estrogen receptor degraders” (NOVARTIS AG, priority 2013, dated 2018).
Counter-ions that a name gives are not always drawn. Like-named read-outs stand apart in the source and are kept apart here.

What was measured:
ERα = ERα (Homo sapiens (Human), UniProt P03372); assay: ERα degradation (MCF7 cells), in-cell Western; assay type: cell-based; conditions: for IC50: inflection point of the degradation in response to ligand concentration
Procedure: ERα Degradation (MCF7 Cells)
(§1) The column titled MCF7 IC50 reports the inflection point of the inhibition of transcription in MCF7 cells as described above. Percentage ERα remaining reports the remaining ERα protein measured at 10 μM concentration of the ligand as described above. The column ERα IC50 reports the inflection point of the degradation in response to the ligand concentration.

[1] = molecular target: ER (endogenous, MCF7 cells) (Homo sapiens (Human), UniProt P03372); assay: ER transcription assay (MCF7 cells), ERE-luciferase reporter; assay type: cell-based; conditions: read-out: MCF7 IC50
From the text: ER Transcription Assay (MCF7 Cells)
The ER transcription assay is a reporter assay that is based on the ability of ER to induce transcription from a luciferase reporter gene containing estrogen response elements (EREs) in the promoter/enhancer region. When the reporter gene is transfected in MCF7 cells (containing endogenous ER), transcription is reflected by the level of luciferase expression.
A day before transfection, cells are split into a T75 flask at a cell density of 300,000 cells/mL (10 mL total) and allowed to attach overnight in a humidified CO2 incubator at 37° C.
Approximately 20 ug DNA is mixed in OptiMEM (Invitrogen) to a total volume of 650 μL. Following incubation, the OptiMEM-DNA mixture is added to the OptiMEM-Lipofectin mix and incubated for 15 minutes at 37° C. The DNA-Lipofectin mixture is then added directly to the T75 flask and the flask is returned to the incubator.
Normally, DMSO (used as a vehicle) is included to achieve a final concentration of 0.1% when added to the cells. Transfected cells are trypsinized, resuspended in DMEM/F12/10% charcoal-stripped serum and added to the 96-well plate at 25,000 cells/well in 90 μL of media. The plate is then returned to the incubator for 24 hours.
After incubation with compounds for 24 hours, Firefly and Renilla luciferase activities are measured to determine ER transcriptional activity. Media is removed from 96-well plates by decanting and blotting on paper towels.
One second total read time after a one second delay.
One second total read time after one second delay. If Firefly luciferase signal is high, Renilla assay must be done an hour after the Firefly assay due to incomplete squelching of Firefly signal.
as §1

[2] = remaining ERα protein at 10 μM ligand, MCF7 cells, relative to DMSO control
[3] = inflection point of the inhibition of transcription in MCF7 cells, 0.1 nM estradiol, 24 hours

ER (endogenous, MCF7 cells), sequence (P03372 whole entry): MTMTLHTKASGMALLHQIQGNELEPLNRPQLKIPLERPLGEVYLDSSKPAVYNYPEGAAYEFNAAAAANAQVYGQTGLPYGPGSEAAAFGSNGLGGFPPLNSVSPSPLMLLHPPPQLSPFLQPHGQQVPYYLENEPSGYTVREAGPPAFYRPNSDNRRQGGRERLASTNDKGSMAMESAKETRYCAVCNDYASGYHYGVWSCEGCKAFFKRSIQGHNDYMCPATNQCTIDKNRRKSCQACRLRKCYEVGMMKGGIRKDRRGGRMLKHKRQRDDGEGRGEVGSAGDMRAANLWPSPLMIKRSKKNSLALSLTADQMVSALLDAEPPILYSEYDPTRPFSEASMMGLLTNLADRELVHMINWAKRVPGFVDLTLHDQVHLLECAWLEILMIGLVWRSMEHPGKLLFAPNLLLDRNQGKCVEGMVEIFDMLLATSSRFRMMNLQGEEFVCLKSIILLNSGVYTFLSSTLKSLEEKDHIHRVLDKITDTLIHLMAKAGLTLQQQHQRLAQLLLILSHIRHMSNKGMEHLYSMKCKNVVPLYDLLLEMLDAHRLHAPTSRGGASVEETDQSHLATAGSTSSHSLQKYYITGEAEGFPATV
ERα, sequence (P03372 whole entry): as above

[C-]#[N+]c1ccccc1-c1sc2cc(O)ccc2c1Oc1ccc(/C=C/C(=O)O)cc1 [Example 24, (E)-3-(4-((6-hydroxy-2-(2-isocyanophenyl)-benzo[b]thiophen-3-yl)oxy)phenyl)acrylic acid]
IC50 (ERα; MCF7 cells): 33 nM
% ERα remaining (ERα; [2]): 22%
IC50 [1, 3]: 2580 nM

COC(=O)/C=C/c1ccc(Oc2c(-c3ccc(O)c(C)c3)sc3cc(O)ccc23)cc1 [Example 41, (E)-methyl 3-(4-((6-hydroxy-2-(4-hydroxy-3-methylphenyl)-benzo[b]thiophen-3-yl)oxy)phenyl)acrylate]
% ERα remaining (ERα; [2]): 32%
IC50 [1, 3]: 10000 nM

CCOC(=O)/C=C/c1ccc(Oc2c(-c3ccc(O)cc3)sc3cc(O)ccc23)cc1OC [Example 43, (E)-ethyl 3-(4-((6-hydroxy-2-(4-hydroxyphenyl)benzo[b]thiophen-3-yl)oxy)-2-methoxyphenyl)acrylate]
% ERα remaining (ERα; [2]): 41%
IC50 [1, 3]: 10000 nM

COC(=O)/C=C/c1ccc(Oc2c(-c3ccccc3)sc3cc(O)ccc23)cc1 [Example 44, (E)-methyl 3-(4-((6-hydroxy-2-phenylbenzo[b]thiophen-3-yl)oxy)phenyl)-acrylate]
% ERα remaining (ERα; [2]): 25%
IC50 [1, 3]: 10000 nM

COC(=O)/C=C/c1ccc(Oc2c(-c3ccccc3C(C)C)sc3cc(O)ccc23)cc1 [Example 45, (E)-methyl 3-(4-((6-hydroxy-2-(2-isopropylphenyl)benzo[b]thiophen-3-yl)oxy)phenyl)acrylate]
% ERα remaining (ERα; [2]): 30%
IC50 [1, 3]: 23 nM

CNC(=O)/C=C/c1ccc(Oc2c(-c3ccc(O)c(F)c3)sc3cc(O)ccc23)cc1 [Example 69, (E)-3-(4-((2-(3-fluoro-4-hydroxyphenyl)-6-hydroxybenzo[b]thiophen-3-yl)oxy)phenyl)-N-methylacrylamide]
IC50 (ERα; MCF7 cells): 24 nM
% ERα remaining (ERα; [2]): 26%
IC50 [1, 3]: 185 nM

CNC(=O)/C=C/c1ccc(Oc2c(-c3ccc(C(F)(F)F)cc3)sc3cc(O)ccc23)cc1 [Example 70, (E)-3-(4-((6-hydroxy-2-(4-(trifluoromethyl)phenyl)benzo[b]thiophen-3-yl)oxy)phenyl)-N-methylacrylamide]
IC50 (ERα; MCF7 cells): 9 nM
% ERα remaining (ERα; [2]): 32%
IC50 [1, 3]: 41 nM

CNC(=O)/C=C/c1ccc(Oc2c(-c3ccc(O)cc3)sc3cc(O)ccc23)cn1 [Example 71, (E)-3-(5-((6-hydroxy-2-(4-hydroxyphenyl)benzo[b]thiophen-3-yl)oxy)pyridin-2-yl)-N-methylacrylamide]
% ERα remaining (ERα; [2]): 41%
IC50 [1, 3]: 269 nM

Oc1ccc(-c2sc3cc(O)ccc3c2Oc2ccc(/C=C/c3c[nH]cn3)cc2)cc1 [Example 72, (E)-3-(4-(2-(1H-imidazol-4-yl)vinyl)phenoxy)-2-(4-hydroxyphenyl)benzo[b]thiophen-6-ol]
IC50 (ERα; MCF7 cells): 11 nM
% ERα remaining (ERα; [2]): 39%
IC50 [1, 3]: 53 nM

Cn1cnc(/C=C/c2ccc(Oc3c(-c4ccc(O)cc4)sc4cc(O)ccc34)cc2)c1 [Example 73, (E)-2-(4-hydroxyphenyl)-3-(4-(2-(1-methyl-1H-imidazol-4-yl)vinyl)phenoxy)benzo[b]thiophen-6-ol]
IC50 (ERα; MCF7 cells): 17 nM
% ERα remaining (ERα; [2]): 47%
IC50 [1, 3]: 125 nM

CCCn1cnc(/C=C/c2ccc(Oc3c(-c4ccc(O)cc4)sc4cc(O)ccc34)cc2)c1 [Example 74, (E)-2-(4-hydroxyphenyl)-3-(4-(2-(1-propyl-1H-imidazol-4-yl)vinyl)phenoxy)benzo [b]thiophen-6-ol]
IC50 (ERα; MCF7 cells): 10 nM
% ERα remaining (ERα; [2]): 32%
IC50 [1, 3]: 58 nM

CN(C)Cc1ccccc1-c1sc2cc(O)ccc2c1Oc1ccc(/C=C/C(=O)O)cc1 [Example 77, (E)-3-(4-((2-(2-((dimethylamino)methyl)phenyl)-6-hydroxybenzo[b]thiophen-3-yl)oxy)phenyl)acrylic acid]
IC50 (ERα; MCF7 cells): 1.4 nM
% ERα remaining (ERα; [2]): 15%
IC50 [1, 3]: 44 nM

CC(=O)/C=C/c1ccc(Oc2c(-c3ccccc3C(C)C)sc3cc(O)ccc23)cc1 [Example 78, (E)-4-(4-((6-hydroxy-2-(2-isopropylphenyl)benzo[b]thiophen-3-yl)oxy)phenyl)but-3-en-2-one]
% ERα remaining (ERα; [2]): 72%
IC50 [1, 3]: 6 nM

O=C(O)/C=C/c1ccc(Oc2c(-c3ccccc3C(F)F)sc3cc(O)ccc23)cc1 [Example 79, (E)-3-(4-((2-(2-(difluoromethyl)phenyl)-6-hydroxybenzo [b]thiophen-3-yl)oxy)phenyl)acrylic acid]
IC50 (ERα; MCF7 cells): 4.2 nM
% ERα remaining (ERα; [2]): 17%
IC50 [1, 3]: 52 nM

CC(C)OC(=O)/C=C/c1ccc(Oc2c(-c3ccccc3C(C)C)sc3cc(O)ccc23)cc1 [Example 81, (E)-isopropyl 3-(4-((6-hydroxy-2-(2-isopropylphenyl)benzo[b]thiophen-3-yl)oxy)phenyl)acrylate]
% ERα remaining (ERα; [2]): 29%
IC50 [1, 3]: 320 nM

CC(=O)Oc1ccc2c(Oc3ccc(/C=C/C(=O)O)cc3)c(-c3ccccc3C(C)C)sc2c1 [Example 82, (E)-3-(4-((6-acetoxy-2-(2-isopropylphenyl)benzo[b]thiophen-3-yl)oxy)phenyl)acrylic acid]
% ERα remaining (ERα; [2]): 21%
IC50 [1, 3]: 11 nM

COCCC(=O)Oc1ccc2c(Oc3ccc(/C=C/C(=O)O)cc3)c(-c3ccccc3C(C)C)sc2c1 [Example 83, (E)-3-(4-((2-(2-isopropylphenyl)-6-((3-methoxypropanoyl)oxy)benzo[b]thiophen-3-yl)oxy)phenyl)acrylic acid]
% ERα remaining (ERα; [2]): 13%
IC50 [1, 3]: 15 nM

CC(C)c1ccccc1-c1sc2cc(OCN3C(=O)c4ccccc4S3(=O)=O)ccc2c1Oc1ccc(/C=C/C(=O)O)cc1 [Example 84, (E)-3-(4-((6-((1,1-dioxido-3-oxobenzo [d]isothiazol-2(3H)-yl)methoxy)-2-(2-isopropylphenyl)benzo[b]thiophen-3-yl)oxy)phenyl)acrylic acid]
% ERα remaining (ERα; [2]): 12%
IC50 [1, 3]: 44 nM

CC(C)c1ccccc1-c1sc2cc(OC(=O)[C@@H](N)C(C)C)ccc2c1Oc1ccc(/C=C/C(=O)O)cc1 [Example 85, (S,E)-3-(4-((6-((2-amino-3-methylbutanoyl)oxy)-2-(2-isopropylphenyl)benzo [b]thiophen-3-yl)oxy)phenyl)acrylic acid hydrochloride]
% ERα remaining (ERα): 12%
IC50 [1]: 7 nM

CCC(C)c1ccccc1-c1sc2cc(O)ccc2c1Oc1ccc(/C=C/C(=O)O)cc1 (centres unmarked) [Example 86, (E)-3-(4-((2-(2-(sec-butyl)phenyl)-6-hydroxybenzo[b]thiophen-3-yl)oxy)phenyl)acrylic acid]
IC50 (ERα; MCF7 cells): 0.2 nM
% ERα remaining (ERα; [2]): 12%
IC50 [1, 3]: 7 nM

O=C(O)/C=C/c1ccc(Oc2c(-c3ccccc3C3CCCC3)sc3cc(O)ccc23)cc1 [Example 87, (E)-3-(4-((2-(2-cyclopentylphenyl)-6-hydroxybenzo[b]thiophen-3-yl)oxy)phenyl)acrylic acid]
IC50 (ERα; MCF7 cells): 0.4 nM
% ERα remaining (ERα; [2]): 15%
IC50 [1, 3]: 14 nM

O=C(O)/C=C/c1ccc(Oc2c(-c3ccccc3C3CCC3)sc3cc(O)ccc23)cc1 [Example 89, (E)-3-(4-((2-(2-cyclobutylphenyl)-6-hydroxybenzo[b]thiophen-3-yl)oxy)phenyl)acrylic acid]
IC50 (ERα; MCF7 cells): 0.5 nM
% ERα remaining (ERα; [2]): 18%
IC50 [1, 3]: 19 nM

O=C(O)/C=C/c1ccc(Oc2c(-c3cccc(F)c3C(F)(F)F)sc3cc(O)ccc23)cc1 [Example 90, (E)-3-(4-((2-(3-fluoro-2-(trifluoromethyl)phenyl)-6-hydroxybenzo[b]thiophen-3-yl)oxy)phenyl)acrylic acid]
IC50 (ERα; MCF7 cells): 1.2 nM
% ERα remaining (ERα; [2]): 15%
IC50 [1, 3]: 26 nM

COc1ccc(-c2sc3cc(O)ccc3c2Oc2ccc(/C=C/C(=O)O)cc2)c(C(F)(F)F)n1 [Example 91, (E)-3-(4-((6-hydroxy-2-(6-methoxy-2-(trifluoromethyl)pyridin-3-yl)benzo[b]thiophen-3-yl)oxy)phenyl)acrylic acid]
% ERα remaining (ERα; [2]): 16%
IC50 [1, 3]: 23 nM

O=C(O)/C=C/c1ccc(Oc2c(-c3ccccc3CN3CCCC3)sc3cc(O)ccc23)cc1 [Example 92, (E)-3-(4-((6-hydroxy-2-(2-(pyrrolidin-1-ylmethyl)phenyl)benzo [b]thiophen-3-yl)oxy)phenyl)acrylic acid]
% ERα remaining (ERα; [2]): 16%
IC50 [1, 3]: 29 nM

CC(C)c1ccccc1-c1sc2cc(O)ccc2c1Oc1ccc(CCC(=O)O)cc1 [Example 93, 3-(4-((6-hydroxy-2-(2-isopropylphenyl)benzo [b]thiophen-3-yl)oxy)phenyl)propanoic acid]
IC50 (ERα; MCF7 cells): 1.6 nM
% ERα remaining (ERα; [2]): 25%
IC50 [1, 3]: 72 nM
